Source: patent publication USRE30561E, “Vinca alkaloid intermediates” (Eli Lilly and Company, priority 1979, dated 1981)

Assays:
[1] = system: experimental malignancies; conditions: in vivo; cited from earlier work
[2] = system: GLS (Gardner lymphosarcoma); assay: Transplanted Gardner lymphosarcoma (GLS) tumor in mice; assay type: in vivo; conditions: for inhibitory activity orally / oral activity: orally
Protocol: (§1) The following table--Table 1--gives the results of several experiments in which mice bearing transplanted tumors were treated successfully with a compound of this invention. In the table, column 1 gives the name of the compound; column 2, the transplanted tumor; column 3, the dose level or dose level range and the number of days the dosage was administered; column 4, the route of administration, and column 5, the percent inhibition of tumor growth or percent prolongation of survival time, e.g., B16 and P388. (ROS is an abbreviation for Ridgeway osteogenic sarcoma; GLS for Gardner lymphosarcoma; P1534(J) and P388 are leukemias; CA 755 is an adenocarcinoma; and B16 is a melamoma).

transplanted tumors [3] = conditions: animals; cited from earlier work
P1534(J) = assay: Transplanted P1534(J) leukemia in mice; assay type: in vivo
Protocol: as §1

B16 = assay: Transplanted B16 melanoma in mice, prolongation of survival time; assay type: in vivo; conditions: IP
Protocol: as §1

CA755 = assay: Transplanted CA755 adenocarcinoma in mice; assay type: in vivo; conditions: for inhibitory activity orally / oral activity: orally
Protocol: as §1

[4] = system: ROS (Ridgeway osteogenic sarcoma); assay: Transplanted Ridgeway osteogenic sarcoma (ROS) in mice; assay type: in vivo; conditions: for inhibitory activity orally / oral activity: orally
Protocol: as §1

transplanted tumors [5] = assay: Activity against transplanted tumors in mice in vivo (general); conditions: for dose level at which comparable tumor inhibition or prolongation of life is shown: parenterally, intraperitoneal route
Protocol: as §1

[6] = Toxicity at higher oral dose levels in experimental animals; assay type: in vivo; conditions: orally, above 2 (VLB) and 2-4.5 (vincristine) mg./kg.
leukemias = conditions: human, in vivo; cited from earlier work
[7] = humans; cited from earlier work

## CCC1(O)CN2CCc3c([nH]c4ccccc34)C(C(=O)OC)(c3cc4c(cc3OC)N(C)C3C(O)(C(=O)OC)CC5(CC)C=CCN6CCC43C65)CC(C2)C1O (stereo not drawn) [4-desacetoxy-3'-hydroxyvinblastine]
[1]
  activity in the treatment of experimental malignancies in animals: active

## CCC1(O)CC2CN(CCc3c([nH]c4ccccc34)C(C(=O)OC)(c3cc4c(cc3OC)N(C)C3C(O)(C(=O)OC)CC5(CC)C=CCN6CCC43C65)C2)C1 (stereo not drawn) [4-desacetoxyvinblastine]
[1]
  activity in the treatment of experimental malignancies in animals: active

## CCC1(O)CC2CN(CCc3c([nH]c4ccccc34)C(C(=O)OC)(c3cc4c(cc3OC)N(C)C3C5(OC(=O)N(C)C5=O)C(OC(=O)NC)C5(CC)C=CCN6CCC43C65)C2)C1 (stereo not drawn) [4-desacetyl VLB 3"-methyl-3-spiro-5"-oxazolidine-2", 4"-dione-4-(N-methyl)carbamate]
[2]; 0.1-2.5 mg./kg. × 7-9 days, IP
  Percent Inhibition of tumor growth: 40-100%

## CCC1(O)CC2CN(CCc3c([nH]c4ccccc34)C(C(=O)OC)(c3cc4c(cc3OC)N(C)C3C5(OC(=O)N(C)C5=O)C(O)C5(CC)C=CCN6CCC43C65)C2)C1 (stereo not drawn) [4-desacetyl VLB 3"-methyl-3-spiro-5"-oxazolidone-2",4"-dione]
[2]; 2.5 mg./kg. × 7 days, IP
  Percent Inhibition of tumor growth: 27%

## CCC1(O)CC2CN(CCc3c([nH]c4ccccc34)C(C(=O)OC)(c3cc4c(cc3OC)N(C)C3C(O)(C(=O)NCCS)C(O)C5(CC)C=CCN6CCC43C65)C2)C1 (stereo not drawn) [C-3 N-(β-mercaptoethyl)carboxamide of 4-desacetyl VLB]
Transplanted tumors [3]
  anti-tumor activity: highly effective anti-tumor agent in mice

## CCC1(O)CC2CN(CCc3c([nH]c4ccccc34)C(C(=O)OC)(c3cc4c(cc3OC)N(C)C3C5(OC(=O)N(CCCl)C5=O)C(OC(C)=O)C5(CC)C=CCN6CCC43C65)C2)C1 (stereo not drawn) [VLB 3"-(β-chloroethyl)-3-spiro-5"-oxazolidine-2",4"-dione]
P1534(J); 3.5 mg./kg. × 8 days, PO
  Percent Inhibition or Prolongation of Survival Time: 100%
P1534(J); 0.4-0.6 mg./kg. × 10 days, IP
  Percent Inhibition or Prolongation of Survival Time: 61-86%
[2]; 0.65 mg./kg. × 10 days, IP
  Percent Inhibition of tumor growth: 47%
[2]; 0.5-0.6 mg./kg. × 9-10 days, IP
  Percent Inhibition of tumor growth: 50-74%
[2]; 3-4 mg./kg. × 9 days, PO
  Percent Inhibition of tumor growth: 92-100%
[2]; 3-6 mg./kg.
  inhibitory activity orally: 100%
B16; 0.4-0.6 mg./kg. × 10 days
  Percent Prolongation of Survival Time: 25-178%
  indefinite survivors (survived for 60 days till end of trial): 5
CA755; 0.75-1.0 mg./kg. × 10 days, IP
  Percent Inhibition of tumor growth: 53%
CA755; 3-5 mg./kg. × 9-10 days, PO
  Percent Inhibition of tumor growth: 59-92%
CA755; 3-6 mg./kg.
  inhibitory activity orally: 100%
[4]; 3-6 mg./kg.
  inhibitory activity orally: 100%

## C=CCN1C(=O)OC2(C1=O)C(OC(C)=O)C1(CC)C=CCN3CCC4(c5cc(C6(C(=O)OC)CC7CN(CCc8c6[nH]c6ccccc86)CC(O)(CC)C7)c(OC)cc5N(C)C24)C31 (stereo not drawn) [VLB 3"-allyl-3-spiro-5"-oxazolidine-2",4"-dione]
[2]; 2.5 mg./kg. × 7 days, IP
  Percent Inhibition of tumor growth: 35%

## CCC1(O)CC2CN(CCc3c([nH]c4ccccc34)C(C(=O)OC)(c3cc4c(cc3OC)N(C)C3C5(OC(=O)N(C)C5=O)C(OC(C)=O)C5(CC)C=CCN6CCC43C65)C2)C1 (stereo not drawn) [VLB 3"-methyl-3-spiro-5"-oxazolidine-2",4"-dione]
P1534(J); 3-4 mg./kg. × 8 days, PO
  Percent Inhibition or Prolongation of Survival Time: 100%
P1534(J); .5-.6 mg./kg. × 10 days, IP
  Percent Inhibition or Prolongation of Survival Time: 100%
[2]; 0.6 mg./kg. × 7 days, IP
  Percent Inhibition of tumor growth: 100%
[2]; 1.25 mg./kg. × 9 days, IP
  Percent Inhibition of tumor growth: 100%
[2]; 3-4 mg./kg. × 10 days, PO
  Percent Inhibition of tumor growth: 100%
[2]; 3-5 mg./kg. × 10 days, PO
  Percent Inhibition of tumor growth: 37-56%
[2]; 6-7 mg./kg.
  inhibitory activity orally: 100%
B16; 4.5 mg./kg. × 10 days
  Percent Prolongation of Survival Time: 49-91%
B16; 0.5-0.6 mg./kg. × 10 days
  indefinite survivors (survived for 60 days till end of trial): 3
CA755; 0.5-1.0 mg./kg. × 10 days, IP
  Percent Inhibition of tumor growth: 43-100%
CA755; 6-7 mg./kg.
  inhibitory activity orally: 100%
[4]; 5-7 mg./kg. × 10 days, PO
  Percent Inhibition of tumor growth: 38-59%
[4]; 6-7 mg./kg.
  inhibitory activity orally: 100%

## CC[C@]1(O)C[C@@H]2CN(CCc3c([nH]c4ccccc34)[C@@](C(=O)OC)(c3cc4c(cc3OC)N(C)[C@H]3[C@@](O)(C(=O)OC)[C@H](OC(C)=O)[C@]5(CC)C=CCN6CC[C@]43[C@@H]65)C2)C1 [VLB, vincaleukoblastine]
[1]
  activity in the treatment of experimental malignancies in animals: active
Transplanted tumors [5]
  activity by the oral route: do not show this degree of oral activity
  dose level at which comparable tumor inhibition or prolongation of life is shown: 0.4 to 0.45 mg/kg
[2]; 2 mg./kg.
  oral activity: only marginally active, if at all
[6]
  toxicity at higher levels: usually are toxic at higher levels
CA755; 2 mg./kg.
  oral activity: only marginally active, if at all
[4]; 2 mg./kg.
  oral activity: only marginally active, if at all

## CCC1CC2CN(CCc3c([nH]c4ccccc34)C(C(=O)OC)(c3cc4c(cc3OC)N(C)C3C(O)(C(=O)OC)C(OC(C)=O)C5(CC)C=CCN6CCC43C65)C2)C1 (stereo not drawn) [deoxy VLB "A"]
[1]
  activity in the treatment of experimental malignancies in animals: active

## CCC1(O)CN2CCc3c([nH]c4ccccc34)C(C(=O)OC)(c3cc4c(cc3OC)N(C)C3C(O)(C(=O)OC)C(OC(C)=O)C5(CC)C=CCN6CCC43C65)CC(O)(C2)C1 (stereo not drawn) [leurocolombine]
[1]
  activity in the treatment of experimental malignancies in animals: active

## CCC12CN3CCc4c([nH]c5ccccc45)C(C(=O)OC)(c4cc5c(cc4OC)N(C=O)C4C(O)(C(=O)OC)C(OC(C)=O)C6(CC)C=CCN7CCC54C76)CC(C3)C1O2 (stereo not drawn) [leuroformine]
[1]
  activity in the treatment of experimental malignancies in animals: active

## CCC1(O)CC2CN(CCc3c([nH]c4ccccc34)C(C(=O)OC)(c3cc4c(cc3OC)N(C)C3C(O)(C(=O)OC)C(OC(C)=O)C5(CC)C=CCN6CCC43C65)C2)C1 (stereo not drawn) [leurosidine]
[1]
  activity in the treatment of experimental malignancies in animals: active

## CC[C@]12CN3CCc4c([nH]c5ccccc45)[C@@](C(=O)OC)(c4cc5c(cc4OC)N(C)[C@H]4[C@@](O)(C(=O)OC)[C@H](OC(C)=O)[C@]6(CC)C=CCN7CC[C@]54[C@@H]76)C[C@H](C3)[C@H]1O2 [leurosine]
[1]
  activity in the treatment of experimental malignancies in animals: active

## CCC1(O)CN2CCc3c([nH]c4ccccc34)C(C(=O)OC)(c3cc4c(cc3OC)N(C)C3C(O)(C(=O)OC)C(OC(C)=O)C5(CC)C=CCN6CCC43C65)CC(C2)C1O (stereo not drawn) [vincadioline]
[1]
  activity in the treatment of experimental malignancies in animals: active

## CCC1(O)CC2CN(CCc3c([nH]c4ccccc34)C(C(=O)OC)(c3cc4c(cc3OC)N(C=O)C3C5(OC(=O)N(C)C5=O)C(OC(C)=O)C5(CC)C=CCN6CCC43C65)C2)C1 (stereo not drawn) [vincristine 3"-methyl-3-spiro-5"-oxazolidone-2",4"-dione]
[2]; 1.0 mg./kg. × 7 days, IP
  Percent Inhibition of tumor growth: 61%

## CC[C@]1(O)C[C@H]2CN(CCc3c([nH]c4ccccc34)[C@@](C(=O)OC)(c3cc4c(cc3OC)N(C=O)[C@H]3[C@@](O)(C(=O)OC)[C@H](OC(C)=O)[C@]5(CC)C=CCN6CC[C@]43[C@@H]65)C2)C1 [vincristine, leurocristine]
[1]
  activity in the treatment of experimental malignancies in animals: active
Transplanted tumors [5]
  activity by the oral route: do not show this degree of oral activity
  dose level at which comparable tumor inhibition or prolongation of life is shown: 0.2 to 0.25 mg/kg
[2]; 2-4.5 mg./kg.
  oral activity: only marginally active, if at all
[6]
  toxicity at higher levels: usually are toxic at higher levels
CA755; 2-4.5 mg./kg.
  oral activity: only marginally active, if at all
[4]; 2-4.5 mg./kg.
  oral activity: only marginally active, if at all

## CC[C@]1(O)C[C@@H]2CN(CCc3c([nH]c4ccccc34)[C@@](C(=O)OC)(c3cc4c(cc3OC)N(C)[C@H]3[C@@](O)(C(N)=O)[C@H](O)[C@]5(CC)C=CCN6CC[C@]43[C@@H]65)C2)C1 [vindesine, 4-desacetyl VLB C-3 carboxamide]
leukemias
  activity in leukemias in humans: active in certain leukemias
[7]
  neurotoxicity compared with vincristine: less neurotoxicity than does vincristine
